US20240217961A1 (MONOPTEROS THERAPEUTICS, INC., priority 2021, published 2024)
Entries after “also recorded” stand apart in the source; their conditions may differ.

Legend:
[1] = Excipient compatibility study of milled API in binary mixtures (40° C./75% R.H. open, 60° C. closed; HPLC, XRPD, appearance); type: physicochemical
Procedure: Samples were set up at each of these two conditions: 40° C./75% R.H. open, and 60° ° C., closed. Three sampling time points (initial, 2 weeks, and 4 weeks) are specified in Table 15.
The API was set up as a control at each time point and each condition. For the pure excipients, only one bulk sample was set up at each condition. They were analyzed at the initial time point and at other time points if degradation of the active substance was observed. For the 15 binary mixtures, triplicate samples were set up at each time point/condition. Two samples were analyzed for purity and XRPD test, and the third one was kept as a contingency sample. The appearance and XRPD of samples under each condition were recorded at each time point.
The binary mixture was set up in duplicate.
Excipient blank controls: Each excipient blank was weighed into a 40 mL clear glass vial as excipient blank control. The excipient blank was set up as a single sample.
API control: Approximate: 13.8 mg of API was weighed into a 40 mL clear glass vial. The API control was set up in duplicate.
All the samples for open condition storage were put into an uncapped clear glass vial. The mouth of vials were covered by aluminum foil with pinholes, to avoid cross-contamination, and then stored in the stability chamber. The samples were stored at each condition 40° C./75% R.H. open and 60° C. close conditions and monitored for physical appearance, XRPD, impurities/related substances and assay at each time point, respectively.
All samples at 40° C./75% R.H., and 60° C. for 2 weeks and 4 weeks, were pulled out and cooled to room temperature for physical appearance, total related substances (TRS) and assay analysis. The diluent was accurately added into 40 ml vials and then the solution was sonicated for 10 minutes to facilitate dissolution of the API. Then 1 mL solution was taken out and centrifuged at 14000 rpm for 5 min for twice to separate some undissolved excipients, and then the concentration of supernatants were analyzed by HPLC instrument. The recovery and TRS results of excipient compatibility study at 40° C./75% R.H., and 60° C. are shown in Table 9, and the results of the complete impurity content and XRPD result are listed in Table 7.

[2] = Hygroscopicity: storage at 92.5% RH for 1 week, weight loss by TGA; type: physicochemical; conditions: for 92.5% RH for 1W (by TGA,%): weight loss by TGA at 145° C. after 92.5% RH for 1 week; for 92.5% RH for 1W, observation: after 92.5% RH for 1 week, Deliqu means deliquescent
[3] = Dynamic Vapor Sorption (DVS) at 25° C.; conditions: for DVS Result 95% RH: 0(120 min)-95% RH(180 min), dm/dt 0.002%
[4] = Solubility at 25° C., 24 h, in SGF, FaSSIF, FeSSIF and water; type: physicochemical
[5] = 70% RH, 25° C., method 50-90-0-50% RH, dm/dt = 0.01%

CN1CCCC(CN2c3ccccc3Sc3ccccc32)C1.O=C(O)CCC(=O)O (stereo not shown) [API control]
Assay (%) ([1]; 40° C./75% RH open, 2 weeks): 100.82% | TRS (%) (total related substances) ([1]; 40° C./75% RH open, 2 weeks): 0.18% | XRPD ([1]; 40° C./75% RH open, 2 weeks): No change | Assay (%) ([1]; 40° C./75% RH open, 4 weeks): 100.08% | TRS (%) (total related substances) ([1]; 40° C./75% RH open, 4 weeks): 0.12% | XRPD ([1]; 40° C./75% RH open, 4 weeks): No change | Assay (%) ([1]; 60° C. close, 2 weeks): 99.70% | TRS (%) (total related substances) ([1]; 60° C. close, 2 weeks): 0.18% | XRPD ([1]; 60° C. close, 2 weeks): No change | Assay (%) ([1]; 60° C. close, 4 weeks): 102.38% | TRS (%) (total related substances) ([1]; 60° C. close, 4 weeks): 0.13% | XRPD ([1]; 60° C. close, 4 weeks): No change | Assay (%) ([1]; Initial 0 day): 100.00% | TRS (%) (total related substances) ([1]; Initial 0 day): 0.14%

CN1CCCC(CN2c3ccccc3Sc3ccccc32)C1.O=C(O)CCCCC(=O)O (stereo not shown) [Adipate]
92.5% RH for 1W (by TGA,%) [2]: 0.6% at

N[C@@H](CCC(=O)O)C(=O)O [Glutamate]
92.5% RH for 1W (by TGA,%) [2]: 2.4% at | DVS Result 95% RH ([3]; 25° C.): 16.84%

CN1CCCC(CN2c3ccccc3Sc3ccccc32)C1.Cl (stereo not shown) [Hydrochloride, reference compound]
behaviour under long term humidity conditions ([2]; 25° C., 92.5% RH for one week): deliquescent | 92.5% RH for 1W, observation [2]: Deliqu | moisture absorbed by DVS ([3]; 25° C. and 95% RH for about 5 hours): 16.9 wt % | moisture absorbed at 80% RH ([3]; 80% RH at 25° C.): 0.85%

CN1CCCC(CN2c3ccccc3Sc3ccccc32)C1.O=C(O)CC(O)C(=O)O (stereo not shown) [Malate]
92.5% RH for 1W, observation [2]: Deliqu

CN1CCCC(CN2c3ccccc3Sc3ccccc32)C1.O=P(O)(O)O (stereo not shown) [Phosphate]
92.5% RH for 1W (by TGA,%) [2]: 1.3% at | DVS Result 95% RH ([3]; 25° C.): 5.18%

O=S(=O)(O)O [Sulfate]
92.5% RH for 1W, observation [2]: Discoloration,; also recorded: Agglomerate | 92.5% RH for 1W (by TGA,%) [2]: 2.3% at 145 °C

CN1CCCC(CN2c3ccccc3Sc3ccccc32)C1.O=C(O)C(O)C(O)C(=O)O (stereo not shown) [Tartarate Pattern I]
92.5% RH for 1W, observation [2]: Deliqu

(S)-mepazine succinate salt
92.5% RH for 1W (by TGA,%) [2]: 0.4% at | DVS Result 95% RH ([3]; 25° C.): 1.87%

Fumarate
92.5% RH for 1W (by TGA,%) [2]: 0.3% at | Solubility 24 h ([4]; FaSSIF, pH 6.5): 9400 µg/mL | pH of solubility sample ([4]; FaSSIF, pH 6.5, 24 h): 3.63 | pH of solubility sample ([4]; FaSSIF, pH 6.5, 24 h, target concentration 2 mg/mL): 5.48 | Solubility 24 h ([4]; FaSSIF, pH 6.5, target concentration 2 mg/mL): > 2000 µg/mL | Solubility 24 h ([4]; FeSSIF, pH 5.0): 3400 µg/mL | pH of solubility sample ([4]; FeSSIF, pH 5.0, 24 h): 4.52 | pH of solubility sample ([4]; FeSSIF, pH 5.0, 24 h, target concentration 2 mg/mL): 4.89 | Solubility 24 h ([4]; FeSSIF, pH 5.0, target concentration 2 mg/mL): > 2000 µg/mL | Solubility 24 h ([4]; H2O): 3800 µg/mL | pH of solubility sample ([4]; H2O, 24 h): 3.49 | pH of solubility sample ([4]; H2O, 24 h, target concentration 2 mg/mL): 3.80 | Solubility 24 h ([4]; H2O, target concentration 2 mg/mL): > 2000 µg/mL | Solubility 24 h ([4]; SGF, pH 2.0): 7500 µg/mL | pH of solubility sample ([4]; SGF, pH 2.0, 24 h): 2.60 | pH of solubility sample ([4]; SGF, pH 2.0, 24 h, target concentration 2 mg/mL): 1.99 | Solubility 24 h ([4]; SGF, pH 2.0, target concentration 2 mg/mL): > 2000 µg/mL | DVS Result 95% RH ([3]; 25° C.): 1.29% | DVS Desorp (%) [3, 5]: 0.13% | DVS Sorption (%) [3, 5]: 0.13%
